The record followed here is patent publication US7534915B2, “Non-symmetrical gelling agent” (Applied Nanosystems B.V., priority 2003, dated 2009).

Structures are written as SMILES.

The nature of this series: Gel test (vial inversion). The format is physicochemical. The procedure:
A weighed amount of solid was dissolved in 0.5 or 1 ml of the solvent in a closed 2.0 ml vial using a heating gun or a heating block and subsequently slowly cooled to room temperature by standing in the air. Gelation was determined by turning the vial upside down and gentle shaking. If no flow of the mass was observed, the mass was defined to be a gel. Alternatively, a weighed amount of solid was dissolved in 1 mL of solvent by the addition of acid or base. The subsequent addition of base or acid then gave gelation. Alternatively, a weighed amount of solid was dissolved in a small amount of solvent. The subsequent addition of a large amount of non-solvent then gave gelation. Alternatively, the solution of gelator/thickener was added to the non-solvent, resulting in gelation. Alternatively, a weighed amount of solid was mixed with 1 mL of solvent by sonication. After stopping the sonication, gelation occurred. Alternatively a weighed amount of solid was mixed with 1 mL of solvent by brief vortexing after which gelation occurred. Alternatively a weighed amount of solid was mixed with 1 mL of solvent after which gelation occurred.

Where [1] appears, read: PEG 400 (printed PEG for compound 20).

Turning to `CCCC[C@H](NC(=O)[C@@H]1C[C@H](C(=O)O)C[C@H](C(=O)N[C@@H](CCCC)C(=O)O)C1)C(=O)O` [Compound 32, CHex(AmNleOH)2(COOH)], for the setting “H2O, concentration not given”, the Gel test entry is reported as “gel”.
For the compound `COC(=O)[C@H](Cc1ccccc1)NC(=O)[C@@H]1C[C@H](C(=O)N[C@@H](Cc2ccccc2)C(=O)OC)C[C@H](C(=O)OCc2ccccc2)C1` [Compound 29, CHex(AmPhe-OMe)2(OBn)], the Gel test result by setting is: (EtOH) “gel”; (MeOH) “gel”; (olive oil) “gel”; (toluene) “gel”.
Take `COC(=O)[C@H](Cc1ccccc1)NC(=O)[C@@H]1C[C@H](C(=O)O)C[C@H](C(=O)N[C@@H](Cc2ccccc2)C(=O)OC)C1` [Compound 30, CHex(AmPhe-OMe)2(COOH)]: the Gel test entry was “clear gel” (3 mg/mL in H2O); “gel” (EtOH/H2O mixtures); “gel” (PEG 400/H2O mixtures); “gel” (olive oil); “gel” (toluene).
As to `COc1ccc(NC(=O)[C@H](Cc2ccccc2)NC(=O)[C@@H]2C[C@H](C(=O)O)C[C@H](C(=O)O)C2)cc1` [Compound 9, CHex(AmPhe-AmPh-OMe)(COOH)2], the Gel test result (3 mg/mL in H2O) was “clear gel”.
Take `COC(=O)[C@H](Cc1ccccc1)NC(=O)[C@H](Cc1ccccc1)NC(=O)[C@@H]1C[C@H](C(=O)O)C[C@H](C(=O)O)C1` [Compound 22, CHex(AmPheAmPheOMe)(COOH)2]: the Gel test entry (toluene) is given as “gel”.
Consider `COc1ccc(NC(=O)[C@H](Cc2ccccc2)NC(=O)[C@@H]2C[C@H](C(=O)NCCOCCO)C[C@H](C(=O)NCCOCCO)C2)cc1` [Compound 10, CHex(AmPhe-AmPh-OMe)(AmEtOEtOH)2], for which the Gel test result (3 mg/mL in H2O) is given as “clear gel”.
For the compound `O=C(O)[C@@H]1C[C@H](C(=O)O)C[C@H](C(=O)N[C@@H](Cc2ccccc2)C(=O)N[C@@H](Cc2ccccc2)C(=O)O)C1` [Compound 23, CHex(AmPheAmPheOH)(COOH)2], the “Aqueous gel formation by acidification” value (compound 22 heated in 1N NaOH (aq), cooled to RT, 2N HCl (aq) added) is listed as “gel”.
For the compound `O=C(O)[C@@H]1C[C@H](C(=O)O)C[C@H](C(=O)N[C@@H](Cc2ccccc2)C(=O)Nc2ccc3ccccc3c2)C1` [Compound 1, CHex(AmPhe-AmβNA)(COOH)2], where the note is “3 mg/mL in H2O”, the Gel test entry is “slightly crystalline gel”.
Take `O=C(NCCOCCO)[C@@H]1C[C@H](C(=O)NCCOCCO)C[C@H](C(=O)N[C@@H](Cc2ccccc2)C(=O)Nc2ccc([N+](=O)[O-])cc2)C1` [Compound 14, CHex(AmPheAmPhNO2)(AmEtOEtOH)2]: the Gel test result (H2O, concentration not given) is recorded as “yellow, weak gel”. Besides, under “heating in water, yellow color (p-NA) observed”, the “Stability upon heating in water” value is “hydrolysis of the PheAmPhNO2 amide takes place”.
With `O=C(NCCOCCO)[C@@H]1C[C@H](C(=O)NCCOCCO)C[C@H](C(=O)N[C@@H](Cc2ccccc2)C(=O)NC2CCCCC2)C1` [Compound 18, CHex(AmPheAmCHex)(AmEtOEtOH)2], the Gel test entry (2 mg/mL in H2O) is reported as “clear gel” and the Gel test result (20 mg/mL in DMSO) is “turbid gel”.
With `O=C(NCCOCCO)[C@@H]1C[C@H](C(=O)NCCOCCO)C[C@H](C(=O)N[C@@H](Cc2ccc(O)cc2)C(=O)Nc2ccc3ccccc3c2)C1` [Compound 24, CHex(AmTyrAmβNA)(AmEtOEtOH)2], the Gel test result runs as follows: (1 mg/mL in H2O) “clear gel”; (EtOH) “gel”; (MeCN) “gel”; (olive oil) “gelly precipitate”.
Take `CCCCCC(C)NC(=O)[C@H](Cc1ccccc1)NC(=O)[C@@H]1C[C@H](C(=O)O)C[C@H](C(=O)O)C1` (stereo partly shown) [Compound 21, CHex(AmPheAm2-Heptyl)(COOH)2]: the Gel test entry is on record as “gel” (H2O, concentration not given) and “gel” (toluene).
Regarding `CCCCCCCCCCNC(=O)[C@H](Cc1ccccc1)NC(=O)[C@@H]1C[C@H](C(=O)NCCOCCO)C[C@H](C(=O)NCCOCCO)C1` [Compound 20, CHex(AmPheAmDecyl)(AmEtOEtOH)2], the Gel test result (EtOH) was “gel”; the Gel test result (H2O, concentration not given) was “gel”; the Gel test entry under setting [1] is listed as “gel”; the Gel test result (toluene) was “gel”.
Turning to `CSCC[C@H](NC(=O)[C@@H]1C[C@H](C(=O)NCc2ccncc2)C[C@H](C(=O)NCc2ccncc2)C1)C(=O)Nc1ccc2ccccc2c1` [Compound 6, CHex(AmMet-AmβNA)(AmCH2Pyr)2], the Gel test result (1 mg/mL in H2O) was “slightly turbid gel”.
Regarding `O=C(O)[C@H]1C[C@@H](C(=O)N[C@@H](Cc2ccccc2)C(=O)Nc2ccc3ccccc3c2)C[C@@H](C(=O)N[C@@H](Cc2ccccc2)C(=O)Nc2ccc3ccccc3c2)C1` [Compound 34, CHex(AmPheAmβNA)2(COOH)], the Gel test result is, setting by setting: (H2O, concentration not given) “gel”; (H2O/t-BuOH (TBA/H2O) mixtures) “gel”.
For the compound `O=C(O)[C@@H]1C[C@H](C(=O)O)C[C@H](C(=O)N[C@@H](Cc2ccccc2)C(=O)NCc2ccccc2)C1` [Compound 7, CHex(AmPhe-AmBn)(COOH)2], the Gel test result (3 mg/mL in H2O) was “slightly turbid gel”.
Turning to `O=C(NCCOCCO)[C@@H]1C[C@H](C(=O)NCCOCCO)C[C@H](C(=O)N[C@@H](Cc2ccccc2)C(=O)NCc2ccccc2)C1` [Compound 8, CHex(AmPhe-AmBn)(AmEtOEtOtH)2], the Gel test result is listed as “clear gel (thixotropic)” (1 mg/mL in H2O); “gel” (EtOH); “gel” (H2O/PG mixtures); “gel” (H2O/t-BuOH (TBA/H2O) mixtures); “gel” (MeCN); “gel” under setting [1]. Besides, the Gel test entry is listed as “weak gel” (olive oil), “gel” (propylene glycol (PG)) and “gel” (t-BuOH). For the same compound, the Gelation of emulsion result (hydrogel 2 mg/ml + olive oil 200 μL, vortexed five seconds) is recorded as “gelated emulsion”.
For `O=C(CNC(=O)[C@H](Cc1ccccc1)NC(=O)[C@@H]1C[C@H](C(=O)O)C[C@H](C(=O)O)C1)Nc1ccc2ccccc2c1` [Compound 27, CHex(AmPheAmGlyAmβNA)(COOH)2], the Gel test result (H2O, concentration not given) is “gel”.
Consider `CNC(=O)[C@H](Cc1ccccc1)NC(=O)[C@@H]1C[C@H](C(=O)N[C@@H](Cc2ccccc2)C(=O)NC)C[C@H](C(=O)OCc2ccccc2)C1` [Compound 33, CHex(AmPheAmMe)2(COOBn)], for which the Gel test result (DMSO) is “turbid gel”.
As for `CC(C)C[C@H](NC(=O)[C@@H]1C[C@H](C(=O)O)C[C@H](C(=O)N[C@@H](CC(C)C)C(=O)Nc2ccc3ccccc3c2)C1)C(=O)Nc1ccc2ccccc2c1` [Compound 37, CHex(AmLeuAmβNA)2(COOH)], the Gel test result reads like this: (DMSO/H2O mixtures) “gel”; (H2O/MeOH mixtures) “gel”; (H2O/iPrOH mixtures) “gel”; (H2O/t-BuOH (TBA/H2O) mixtures) “gel”.
As to `O=C(O)[C@H]1C[C@@H](C(=O)N[C@@H](CO)C(=O)Nc2ccc3ccccc3c2)C[C@@H](C(=O)N[C@@H](CO)C(=O)Nc2ccc3ccccc3c2)C1` [Compound 36, CHex(AmSerAmβNA)2(COOH)], the Gel test entry was “gel” (DMSO/CH2Cl2 mixtures); “gel” (DMSO/EtOH mixtures); “gel” (DMSO/H2O mixtures); “gel” (DMSO/MeCN mixtures); “gel” (DMSO/toluene mixtures); “gel” (H2O, concentration not given). In addition, the Gel test entry runs as follows: (H2O/t-BuOH (TBA/H2O) mixtures) “gel”; (MeCN) “weak gel”.
`O=C(NCCOCCO)[C@@H]1C[C@H](C(=O)NCCOCCO)C[C@H](C(=O)N[C@@H](Cc2ccccc2)C(=O)NCCc2ccccc2)C1` [Compound 26, CHex(AmPheAmEtPh)(AmEtOEtOH)2]: the Gel test entry runs as follows: (H2O, concentration not given) “gel (thixotropic)”; (H2O/PG mixtures) “gel”; (H2O/t-BuOH (TBA/H2O) mixtures) “gel”; (propylene glycol (PG)) “gel”; (t-BuOH) “gel”.
With `CCCCCCCCCCNC(=O)[C@H](Cc1ccccc1)NC(=O)[C@@H]1C[C@H](C(=O)O)C[C@H](C(=O)O)C1` [Compound 19, CHex(AmPheAmDecyl)(COOH)2], the Gel test result (H2O, concentration not given) is on record as “clear gel” and the Gel test entry (toluene) is “gel”.
For the compound `CSCC[C@H](NC(=O)[C@@H]1C[C@H](C(=O)NCCO)C[C@H](C(=O)NCCO)C1)C(=O)Nc1ccc2ccccc2c1` [Compound 5, CHex(AmMet-AmβNA)(AmEtOH)2], the Gel test result (2 mg/mL in H2O) was “clear gel”.
Take `CSCC[C@H](NC(=O)[C@@H]1C[C@H](C(=O)O)C[C@H](C(=O)O)C1)C(=O)Nc1ccc2ccccc2c1` [Compound 3, CHex(AmMet-AmβNA)(COOH)2]: the Gel test result (3 mg/mL in H2O) is recorded as “slightly crystalline gel”.
For `C[C@H](NC(=O)[C@@H]1C[C@H](C(=O)O)C[C@H](C(=O)O)C1)C(=O)Nc1ccc2ccccc2c1` [Compound 13, CHex(AmAlaAmβNA)(COOH)2], for the setting “H2O, concentration not given”, the Gel test entry is “gel”.
Regarding `O=C(O)[C@@H]1C[C@H](C(=O)O)C[C@H](C(=O)N[C@@H](Cc2ccccc2)C(=O)NCCc2ccccc2)C1` [Compound 25, CHex(AmPheAmEtPh)(COOH)2], the Gel test result is on record as “gel” (H2O, concentration not given) and “gel” (toluene).
Regarding `O=C(NCCOCCO)[C@@H]1C[C@H](C(=O)NCCOCCO)C[C@H](C(=O)N[C@@H](Cc2ccccc2)C(=O)Nc2ccc3ccccc3c2)C1` [Compound 2, CHex(AmPhe-AmβNA)(AmEtOEtOH)2], under “1 mg/mL in H2O”, the Gel test result was “clear gel”.
